Key:
[1] = test system: OPM-2 human multiple myeloma cell line; experiment: Cell Viability Assay (OPM-2 10 FBS); type: cell-based; details: OPM-2 cells, CellTiter-Glo
Method in brief: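 OPM-2 myeloma cells, 3000/well in medium with 10% FBS, exposed to serially diluted compounds for 16 h at 37° C./5% CO2. Viability read by CellTiter-Glo luminescence; IC50 from 4-parameter logistic fit.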

[2] = molecular target: T1, Mcl-1/Bim interaction, recombinant human Mcl-1 (171-327) (Homo sapiens, UniProt Q07820); experiment: Cell free Mcl-1: Bim Affinity Assay (Mcl-1 HTRF); type: binding
T1 construct: made in house
Method in brief: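 Displacement of biotinylated Bim 51-76 peptide is followed by TR-FRET. Incubation runs overnight. Duplicate points are fitted with a four-parameter sigmoid to yield IC50.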

[3] = Homo sapiens, OPM-2, 16 h, 16 h incubation
[4] = TR-FRET, 0.1 nM Mcl-1 (171-327), 0.05 nM biotin-Bim (51-76)
[5] = Homo sapiens, OPM-2, 16 h, 16 h
[6] = cell free Mcl-1:Bim TR-FRET, recombinant human Mcl-1 (171-327)

T1 sequence (Q07820 171-327): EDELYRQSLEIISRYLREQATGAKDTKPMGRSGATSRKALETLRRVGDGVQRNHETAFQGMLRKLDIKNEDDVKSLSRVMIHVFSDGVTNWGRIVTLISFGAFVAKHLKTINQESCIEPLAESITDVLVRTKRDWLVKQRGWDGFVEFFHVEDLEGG

Row | IC50 [2, 4] [nM] | IC50 [1, 5] [nM] | SMILES | IC50 ([1]; 16 h) [nM] | other results
1 | 4.37 | – | CC1C/C=C/[C@@H](O)[C@@H]2CC[C@H]2CN2C[C@@]3(CCCc4cc(Cl)ccc43)COc3ccc(cc32)C(=O)NS(=O)(=O)C1 (stereo in doubt) [Example 1088, (1S,3′R,6′R,7′R,8′E,11′S)-6-chloro-7′-hydroxy-11′-(methyl)-3,4-dihydro-2H,15′H-spiro [naphthalene-1,22′-[20]oxa[13]thia[1,14]diazatetracyclo[14.7.2.0^3,6.0^19,24]pentacosa [8,16,18,24]tetraen]-15′-one 13′,13′-dioxide] | – | IC50 [1, 3]: 8980 nM
2 | 0.211 | 128 | COCCOCCOCCOCCO[C@H]1/C=C/C[C@H](C)[C@@H](C)S(=O)(=O)NC(=O)c2ccc3c(c2)N(C[C@@H]2CC[C@H]21)C[C@@]1(CCCc2cc(Cl)ccc21)CO3 [Example 379, (1S,3′R,6′R,7′S,8′E,11′S,12′R)-6-chloro-11′,12′-dimethyl-7′-(3,6,9,12-tetraoxatridec-1-yloxy)-3,4-dihydro-2H,15′H-spiro[naphthalene-1,22′-[20]oxa[13]thia[1,14]diazatetracyclo[14.7.2.0^3,6.0^19,24]pentacosa[8,16,18,24]tetraen]-15′-one 13′,13′-dioxide] | – | –
3 | – | – | C[C@@H]1CS(=O)(=O)NC(=O)c2ccc3c(c2)N(C[C@@H]2CC[C@H]2[C@@H]2C[C@H](CCO2)O1)C[C@@]1(CCCc2cc(Cl)ccc21)CO3 (single isomer, unassigned) [Example 922] | 2400 | IC50 [2, 6]: 0.975 nM
4 | 0.267 | – | C[C@@H]1C[C@@H](C)/C=C/[C@H](O)[C@@H]2CC[C@H]2CN2C[C@@]3(CCCc4cc(Cl)ccc43)COc3ccc(cc32)C(=O)NS1(=O)=O [Example 1014, (1S,3′R,6′R,7′S,8′E,10′R,12′R)-6-chloro-7′-hydroxy-10′,12′-dimethyl-3,4-dihydro-2H,15′H-spiro[naphthalene-1,22′-[20]oxa[13]thia[1,14]diazatetracyclo[14.7.2.0^3,6.0^19,24]pentacosa [8,16,18,24]tetraen]-15′-one 13′,13′-dioxide] | – | IC50 [1, 3]: 329 nM
5 | 2.11 | 912 | O=C1NS(=O)(=O)N2CCOC[C@H]2C/C=C\[C@H](O)[C@@H]2CC[C@H]2CN2C[C@@]3(CCCc4cc(Cl)ccc43)COc3ccc1cc32 (single isomer, unassigned) [Example 344] | – | –
6 | 0.781 | 774 | C[C@H]1C/C=C\[C@H](O)[C@@H]2CC[C@H]2CN2C[C@@]3(CCCc4cc(Cl)ccc43)COc3ccc(cc32)C(=O)NS(=O)(=O)N1C[C@H]1CCCO1 (single isomer, unassigned) [Example 54] | – | –
7 | 2.4 | 1830 | CN(C)S(=O)(=O)CCO[C@@H]1/C=C/CCCS(=O)(=O)NC(=O)c2ccc3c(c2)N(C[C@@H]2CC[C@H]21)C[C@@]1(CCCc2cc(Cl)ccc21)CO3 [Example 219, 2-(((1S,3′R,6′R,7′R,8′E)-6-chloro-13′,13′-dioxido-15′-oxo-3,4-dihydro-2H-spiro[naphthalene-1,22′-[20]oxa[13]thia[1,14]diazatetracyclo[14.7.2.0^3,6.0^19,24]pentacosa [8,16,18,24]tetraen]-7′-yl)oxy)-N,N-dimethylethanesulfonamide] | – | –
8 | – | – | CC(C)OC(=O)C[C@@H]1[C@@H](C)C/C=C\[C@H](O)[C@@H]2CC[C@H]2CN2C[C@@]3(CCCc4cc(Cl)ccc43)COc3ccc(cc32)C(=O)NS1(=O)=O [Example 568] | 1310 | IC50 [2, 6]: 1.1 nM
9 | – | 7640 | CC(C)CC1CC(C)C=CC(O)C2CCC2CN2CC3(CCCc4cc(Cl)ccc43)COc3ccc(cc32)C(=O)NS1(=O)=O (single isomer, unassigned) [Example 482] | – | IC50 [2, 6]: 7.52 nM
10 | – | – | O=C1NS(=O)(=O)C2CC2CC=CC(O)C2CCC2CN2CC3(CCCc4cc(Cl)ccc43)COc3ccc1cc32 (single isomer, unassigned) [Example 796] | 195 | IC50 [2, 6]: 0.45 nM
11 | 0.263 | 296 | COC[C@H]1[C@@H](C)C/C=C\[C@H](O)[C@@H]2CC[C@H]2CN2C[C@@]3(CCCc4cc(Cl)ccc43)COc3ccc(cc32)C(=O)NS1(=O)=O (single isomer, unassigned) [Example 457] | – | –
12 | 0.214 | 834 | C[C@@H]1CC/C=C/[C@H](OCc2cn(C)nn2)[C@@H]2CC[C@H]2CN2C[C@@]3(CCCc4cc(Cl)ccc43)COc3ccc(cc32)C(=O)NS1(=O)=O [Example 417, (1S,3′R,6′R,7′S,8′E,12′R)-6-chloro-12′-methyl-7′-((1-methyl-1H-1,2,3-triazol-4-yl)methoxy)-3,4-dihydro-2H,15′H-spiro[naphthalene-1,22′-[20]oxa[13]thia[1,14]diazatetracyclo[14.7.2.0^3,6.0^19,24]pentacosa [8,16,18,24]tetraen]-15′-one 13′,13′-dioxide] | – | –
13 | 0.205 | 312 | COCCN1[C@@H](C)C/C=C/[C@H](O)[C@@H]2CC[C@H]2CN2C[C@@]3(CCCc4cc(Cl)ccc43)COc3ccc(cc32)C(=O)NS1(=O)=O [Example 26, (1S,3′R,6′R,7′S,8′E,11′S)-6-chloro-7′-hydroxy-12′-(2-methoxyethyl)-11′-methyl-3,4-dihydro-2H,15′H-spiro[naphthalene-1,22′-[20]oxa[13]thia[1,12,14]triazatetracyclo[14.7.2.0^3,6.0^19,24]pentacosa[8,16,18,24]tetraen]-15′-one 13,13′-dioxide] | – | –
14 | 0.264 | – | C[C@@H]1[C@@H](C)S(=O)(=O)NC(=O)c2ccc3c(c2)N(C[C@@H]2CC[C@H]2[C@@H](OCCN2CCOCC2)/C=C/[C@@H]1C)C[C@@]1(CCCc2cc(Cl)ccc21)CO3 [Example 1049, (1S,3′R,6′R,7′S,8′E,10′S,11′S,12′R)-6-chloro-10′,11′,12′-trimethyl-7′-(2-(4-morpholinyl)ethoxy)-3,4-dihydro-2H,15′H-spiro[naphthalene-1,22′-[20]oxa[13]thia[1,14]diazatetracyclo[14.7.2.0^3,6.0^19,24]pentacosa [8,16,18,24]tetraen]-15′-one 13′,13′-dioxide] | – | IC50 [1, 3]: 126 nM
15 | 0.421 | – | O=C1NS(=O)(=O)C[C@@H](CO)C/C=C/[C@H](O)[C@@H]2CC[C@H]2CN2C[C@@]3(CCCc4cc(Cl)ccc43)COc3ccc1cc32 [Example 1086, (1S,3′R,6′R,7′S,8′E,11′R)-6-chloro-7′-hydroxy-11′-(hydroxymethyl)-3,4-dihydro-2H,15′H-spiro [naphthalene-1,22′-[20]oxa[13]thia[1,14]diazatetracyclo[14.7.2.0^3,6.0^19,24]pentacosa [8,16,18,24]tetraen]-15′-one 13′,13′-dioxide] | – | IC50 [1, 3]: 8650 nM
16 | 9.09 | – | C[C@H]1/C=C/[C@H](O)[C@@H]2CC[C@H]2CN2C[C@@]3(CCCc4cc(Cl)ccc43)COc3ccc(cc32)C(=O)NS(=O)(=O)[C@@H](C)C1 (single isomer, unassigned) [Example 1021] | – | IC50 ([1]; 16 h incubation): 27000 nM
17 | 0.519 | 509 | CNC(=O)C(OC)C1C=CC2CCC2CN2CC3(CCCc4cc(Cl)ccc43)COc3ccc(cc32)C(=O)NS(=O)(=O)C(C)C(C)C1 (single isomer, unassigned) [Example 361] | – | –
18 | – | – | COC[C@@H]1C[C@H](C)/C=C/[C@H](O)[C@@H]2CC[C@H]2CN2C[C@@]3(CCCc4cc(Cl)ccc43)COc3ccc(cc32)C(=O)NS1(=O)=O (single isomer, unassigned) [Example 472] | 206 | IC50 [2, 6]: 0.27 nM
19 | 1.55 | 1280 | CCN(CC)S(=O)(=O)CCN1CC/C=C/[C@H](O)[C@@H]2CC[C@H]2CN2C[C@@]3(CCCc4cc(Cl)ccc43)COc3ccc(cc32)C(=O)NS1(=O)=O [Example 35, 2-((1S,3′R,6′R,7′S,8′E)-6-chloro-7′-hydroxy-13′,13′-dioxido-15′-oxo-3,4-dihydro-2H,12′H-spiro[naphthalene-1,22′-[20]oxa[13]thia[1,12,14]triazatetracyclo[14.7.2.0^3,6.0^19,24]pentacosa[8,16,18,24]tetraen]-12′-yl)-N,N-diethylethanesulfonamide] | – | –
20 | – | – | COC[C@@H](O)C[C@@H]1[C@@H](C)C/C=C/[C@H](OC)[C@@H]2CC[C@H]2CN2C[C@@]3(CCCc4cc(Cl)ccc43)COc3ccc(cc32)C(=O)NS1(=O)=O (single isomer, unassigned) [Example 679] | 205 | IC50 [2, 6]: 0.429 nM
21 | 0.614 | 2570 | CS(=O)(=O)CCN1CC/C=C\[C@H](O)[C@@H]2CC[C@H]2CN2C[C@@]3(CCCc4cc(Cl)ccc43)COc3ccc(cc32)C(=O)NS1(=O)=O [Example 37, (1S,3′R,6′R,7′S,8′Z)-6-chloro-7′-hydroxy-12′-(2-(methylsulfonyl)ethyl)-3,4-dihydro-2H,15′H-spiro[naphthalene-1,22′-[20]oxa[13]thia[1,12,14]triazatetracyclo[14.7.2.0^3,6.0^19,24]pentacosa[8,16,18,24]tetraen]-15′-one 13′,13′-dioxide] | – | –

Row | SMILES | IC50 [2, 4] [nM] | IC50 [1, 5] [nM] | IC50 ([1]; 16 h) [nM] | other results
22 | CC[C@@H](O[C@H]1/C=C/C[C@H](C)[C@@H](C)S(=O)(=O)NC(=O)c2ccc3c(c2)N(C[C@@H]2CC[C@H]21)C[C@@]1(CCCc2cc(Cl)ccc21)CO3)C(=O)N(C)C (single isomer, unassigned) [Example 431] | 0.512 | – | 140 | –
23 | COCCO[C@H]1/C=C/C[C@H](C)[C@@H](CCOC)S(=O)(=O)NC(=O)c2ccc3c(c2)N(C[C@@H]2CC[C@H]21)C[C@@]1(CCCc2cc(Cl)ccc21)CO3 (single isomer, unassigned) [Example 397] | 0.228 | – | 143 | –
